The NIST ThermoML archive (doi:10.1016/j.jct.2013.01.008)
± gives the expanded uncertainty stated by the source.

Experiment: mn = molality of the nth substance listed, in mol/kg
Settings: 101 kPa, Liquid; for mass density: Pycnometric method; for viscosity: Capillary tube (Ostwald / Ubbelohde) method

`C[C@@H](O)[C@H](N)C(=O)O` [L-threonine] + O showed a mass density (293.15 K, m1 = 0.025) of 999.31 ± 0.29 kg/m3, a mass density (293.15 K, m1 = 0.05) of 1000.36 ± 0.29 kg/m3 and a mass density (293.15 K, m1 = 0.075) of 1001.39 ± 0.29 kg/m3. The mass density (293.15 K, m1 = 0.0999) was 1002.41 ± 0.29 kg/m3, the mass density (293.15 K, m1 = 0.1249) was 1003.41 ± 0.29 kg/m3 and the mass density (293.15 K, m1 = 0.15) was 1004.39 ± 0.29 kg/m3. It also gave a mass density (293.15 K, m1 = 0.175) of 1005.36 ± 0.29 kg/m3, a mass density (293.15 K, m1 = 0.2) of 1006.31 ± 0.29 kg/m3 and a viscosity (298.15 K, m1 = 0.025) of 0.8981 ± 0.0082 mPa·s. The viscosity (298.15 K, m1 = 0.05) was 0.9057 ± 0.0082 mPa·s, the viscosity (298.15 K, m1 = 0.075) was 0.9134 ± 0.0083 mPa·s and the viscosity (298.15 K, m1 = 0.0999) was 0.9211 ± 0.0083 mPa·s. The viscosity (298.15 K, m1 = 0.1249) was 0.9286 ± 0.0084 mPa·s, the viscosity (298.15 K, m1 = 0.15) was 0.936 ± 0.0084 mPa·s and the viscosity (298.15 K, m1 = 0.175) was 0.9434 ± 0.0084 mPa·s. For the same compound, the viscosity (298.15 K, m1 = 0.2) was 0.9511 ± 0.0085 mPa·s, the mass density (298.15 K, m1 = 0.025) was 998.14 ± 0.31 kg/m3 and the mass density (298.15 K, m1 = 0.05) was 999.18 ± 0.31 kg/m3. It also gave a mass density (298.15 K, m1 = 0.075) of 1000.22 ± 0.31 kg/m3, a mass density (298.15 K, m1 = 0.0999) of 1001.23 ± 0.31 kg/m3 and a mass density (298.15 K, m1 = 0.1249) of 1002.23 ± 0.31 kg/m3. For the same compound, the mass density (298.15 K, m1 = 0.15) was 1003.21 ± 0.31 kg/m3, the mass density (298.15 K, m1 = 0.175) was 1004.18 ± 0.31 kg/m3 and the mass density (298.15 K, m1 = 0.2) was 1005.12 ± 0.31 kg/m3. For the same compound, the viscosity (303.15 K, m1 = 0.025) was 0.8051 ± 0.0075 mPa·s, the viscosity (303.15 K, m1 = 0.05) was 0.8128 ± 0.0075 mPa·s and the viscosity (303.15 K, m1 = 0.075) was 0.8205 ± 0.0076 mPa·s. For the same compound, the viscosity (303.15 K, m1 = 0.0999) was 0.828 ± 0.0076 mPa·s, the viscosity (303.15 K, m1 = 0.1249) was 0.8358 ± 0.0077 mPa·s and the viscosity (303.15 K, m1 = 0.15) was 0.8434 ± 0.0077 mPa·s. The viscosity (303.15 K, m1 = 0.175) was 0.851 ± 0.0077 mPa·s, the viscosity (303.15 K, m1 = 0.2) was 0.8584 ± 0.0078 mPa·s and the mass density (303.15 K, m1 = 0.025) was 996.75 ± 0.33 kg/m3. It also gave a mass density (303.15 K, m1 = 0.05) of 997.8 ± 0.33 kg/m3, a mass density (303.15 K, m1 = 0.075) of 998.83 ± 0.33 kg/m3 and a mass density (303.15 K, m1 = 0.0999) of 999.84 ± 0.33 kg/m3. It also gave a mass density (303.15 K, m1 = 0.1249) of 1000.83 ± 0.33 kg/m3, a mass density (303.15 K, m1 = 0.15) of 1001.83 ± 0.33 kg/m3 and a mass density (303.15 K, m1 = 0.175) of 1002.79 ± 0.33 kg/m3. For the same compound, the mass density (303.15 K, m1 = 0.2) was 1003.74 ± 0.33 kg/m3, the viscosity (308.15 K, m1 = 0.025) was 0.7266 ± 0.0067 mPa·s and the viscosity (308.15 K, m1 = 0.05) was 0.7344 ± 0.0068 mPa·s. The viscosity (308.15 K, m1 = 0.075) was 0.7421 ± 0.0068 mPa·s, the viscosity (308.15 K, m1 = 0.0999) was 0.7496 ± 0.0069 mPa·s and the viscosity (308.15 K, m1 = 0.1249) was 0.7571 ± 0.0069 mPa·s. The viscosity (308.15 K, m1 = 0.15) was 0.7645 ± 0.007 mPa·s, the viscosity (308.15 K, m1 = 0.175) was 0.7719 ± 0.007 mPa·s and the viscosity (308.15 K, m1 = 0.2) was 0.7792 ± 0.0071 mPa·s. The mass density (308.15 K, m1 = 0.025) was 995.14 ± 0.36 kg/m3, the mass density (308.15 K, m1 = 0.05) was 996.19 ± 0.36 kg/m3 and the mass density (308.15 K, m1 = 0.075) was 997.23 ± 0.36 kg/m3. It also gave a mass density (308.15 K, m1 = 0.0999) of 998.24 ± 0.36 kg/m3, a mass density (308.15 K, m1 = 0.1249) of 999.24 ± 0.36 kg/m3 and a mass density (308.15 K, m1 = 0.15) of 1000.23 ± 0.36 kg/m3. For the same compound, the mass density (308.15 K, m1 = 0.175) was 1001.2 ± 0.36 kg/m3, the mass density (308.15 K, m1 = 0.2) was 1002.15 ± 0.36 kg/m3 and the viscosity (313.15 K, m1 = 0.025) was 0.66 ± 0.0061 mPa·s. For the same compound, the viscosity (313.15 K, m1 = 0.05) was 0.6678 ± 0.0062 mPa·s, the viscosity (313.15 K, m1 = 0.075) was 0.6754 ± 0.0062 mPa·s and the viscosity (313.15 K, m1 = 0.0999) was 0.6828 ± 0.0063 mPa·s. For the same compound, the viscosity (313.15 K, m1 = 0.1249) was 0.6901 ± 0.0063 mPa·s, the viscosity (313.15 K, m1 = 0.15) was 0.6974 ± 0.0064 mPa·s and the viscosity (313.15 K, m1 = 0.175) was 0.7047 ± 0.0064 mPa·s. It also gave a viscosity (313.15 K, m1 = 0.2) of 0.7119 ± 0.0065 mPa·s, a mass density (313.15 K, m1 = 0.025) of 993.32 ± 0.39 kg/m3 and a mass density (313.15 K, m1 = 0.05) of 994.38 ± 0.39 kg/m3. For the same compound, the mass density (313.15 K, m1 = 0.075) was 995.42 ± 0.39 kg/m3, the mass density (313.15 K, m1 = 0.0999) was 996.44 ± 0.39 kg/m3 and the mass density (313.15 K, m1 = 0.1249) was 997.44 ± 0.39 kg/m3. The mass density (313.15 K, m1 = 0.15) was 998.43 ± 0.39 kg/m3, the mass density (313.15 K, m1 = 0.175) was 999.4 ± 0.39 kg/m3 and the mass density (313.15 K, m1 = 0.2) was 1000.35 ± 0.39 kg/m3. It also gave a viscosity (318.15 K, m1 = 0.025) of 0.6044 ± 0.0057 mPa·s, a viscosity (318.15 K, m1 = 0.05) of 0.6121 ± 0.0057 mPa·s and a viscosity (318.15 K, m1 = 0.075) of 0.6196 ± 0.0058 mPa·s. The viscosity (318.15 K, m1 = 0.0999) was 0.6269 ± 0.0058 mPa·s, the viscosity (318.15 K, m1 = 0.1249) was 0.6341 ± 0.0059 mPa·s and the viscosity (318.15 K, m1 = 0.15) was 0.6413 ± 0.0059 mPa·s. It also gave a viscosity (318.15 K, m1 = 0.175) of 0.6485 ± 0.006 mPa·s, a viscosity (318.15 K, m1 = 0.2) of 0.6556 ± 0.006 mPa·s and a mass density (318.15 K, m1 = 0.025) of 991.32 ± 0.41 kg/m3. The mass density (318.15 K, m1 = 0.05) was 992.38 ± 0.41 kg/m3, the mass density (318.15 K, m1 = 0.075) was 993.42 ± 0.41 kg/m3 and the mass density (318.15 K, m1 = 0.0999) was 994.45 ± 0.41 kg/m3. It also gave a mass density (318.15 K, m1 = 0.1249) of 995.46 ± 0.41 kg/m3, a mass density (318.15 K, m1 = 0.15) of 996.45 ± 0.4 kg/m3 and a mass density (318.15 K, m1 = 0.175) of 997.43 ± 0.4 kg/m3. It also gave a mass density (318.15 K, m1 = 0.2) of 998.39 ± 0.4 kg/m3.
